Here are results for four molecules from US20250041459A1, “Polyethylene Glycol Modified Zwitterionic Fluorescent Probe and Application Thereof, and Preparation” (Beijing Sonophotonano Medical Technology Company Limited, priority 2022, published 2025).

Data set [1] in a line: Absorption and fluorescence spectra of probes (optical properties). The format is physicochemical. The conditions noted are these: for Fluorescence quantum yield: ICG in DMSO as standard.
Data set [2] concerns MB-49 human bladder cancer cells. Kind of data set: Fluorescence imaging in mouse subcutaneous tumor model of MB-49 bladder cancer cells. It counts as in vivo, Balb/c nude mouse. As for the experimental part: A mouse subcutaneous tumor model of human bladder cancer cells was set up by injecting MB-49 human bladder cancer cells in Balb/c nude mouse legs. After the tumor grew to a proper size, four fluorescent probes were respectively intravenously injected (2 nmol of probe was injected for each mouse), and then fluorescence imaging was performed on mice at different time points after injection.

For data set [3], the system named is U87 human glioma. To be noted: 2 nmol intravenous, 4 h. An excerpt: (§1) This test example studied the imaging manifestations of PEG-Cy7-RP-RGD in different tumor models. A U87 human glioma mouse in-situ model, an SKOV3 human ovarian cancer in-situ model, a 4T1 mouse breast cancer lung metastasis model and an MB-49 human bladder cancer lung metastasis model were respectively set up.

In data set [4] the test system is 4T1 mouse breast cancer lung metastasis. The conditions noted are these: 2 nmol intravenous, 4 h.
Text: as §1
(§2) A 4T1 mouse breast cancer lung metastasis model and an MB-49 mouse bladder cancer lung metastasis model were respectively set up in FIG. 11.

In data set [5] the test system is MB-49 human bladder cancer lung metastasis. The conditions noted are these: 2 nmol intravenous, 4 h.
Text: as §1, §2

The subject of data set [6] is SKOV3 human ovarian cancer. The conditions noted are these: 2 nmol intravenous, 4 h.
Text: as §1
A […] human ovarian cancer mouse in-situ tumor model was set up in FIG. 10.

Data set [7] deals with tumors. The experiment in a line: The above tests repeated on probes of examples 2-5 (targeted fluorescence imaging of tumors). The conditions noted are these: in vivo. The source says: (§3) The inventors conducted the above test to the fluorescent probes prepared in examples 2-5.
Data set [8] addresses T1, PSMA (Homo sapiens, UniProt Q04609).
T1 construct: highly expressed PSMA in prostate cancer; endogenous in cells
The experiment in a line: PSMA-targeted prostate cancer fluorescence imaging. To be noted: in vivo.
Text: as §3

T1 sequence (Q04609 whole entry, species assumed): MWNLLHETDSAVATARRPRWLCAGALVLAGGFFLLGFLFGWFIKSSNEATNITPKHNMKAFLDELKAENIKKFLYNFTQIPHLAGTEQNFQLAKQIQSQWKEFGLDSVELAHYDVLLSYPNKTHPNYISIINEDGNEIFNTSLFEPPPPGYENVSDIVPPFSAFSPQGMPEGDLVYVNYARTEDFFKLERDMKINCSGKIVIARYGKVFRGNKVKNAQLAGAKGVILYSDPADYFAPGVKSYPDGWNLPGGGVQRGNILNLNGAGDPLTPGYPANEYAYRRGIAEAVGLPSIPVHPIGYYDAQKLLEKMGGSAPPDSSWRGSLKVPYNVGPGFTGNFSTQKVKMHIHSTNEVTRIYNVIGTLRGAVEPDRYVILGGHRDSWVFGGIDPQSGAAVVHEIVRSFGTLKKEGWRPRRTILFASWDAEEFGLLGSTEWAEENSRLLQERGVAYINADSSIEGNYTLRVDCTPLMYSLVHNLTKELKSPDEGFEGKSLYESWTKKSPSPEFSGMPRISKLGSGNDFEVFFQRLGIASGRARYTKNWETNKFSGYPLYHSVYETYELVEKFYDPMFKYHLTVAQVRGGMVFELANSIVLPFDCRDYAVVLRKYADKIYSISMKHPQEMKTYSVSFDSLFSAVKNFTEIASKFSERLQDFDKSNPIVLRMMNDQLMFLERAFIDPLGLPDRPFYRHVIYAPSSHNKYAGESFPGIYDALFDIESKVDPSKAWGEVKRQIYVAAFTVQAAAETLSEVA

As to `COCCOCCOCCN1/C(=C/C=C2\CCCC(/C=C/C3=[N+](CCOCCOCCOC)c4ccc(S(=O)(=O)O)cc4C3(C)C)=C2Oc2ccc(CCC(=O)O)cc2)C(C)(C)c2cc(S(=O)(=O)[O-])ccc21` [PEG-Cy7-COOH], in data set [1] (PBS), the “Fluorescent brightness compared with PEG-Cy7-Cl” value is on record as “doubled” and the “Increase of fluorescence quantum yield compared with PEG-Cy7-Cl” value stood at 3.7%. Moreover, in data set [1] (PBS buffer (pH = 7.4)), the Absorption peak came to 772 nm, the Emission peak came out at 794 nm, the “Luminance (molar extinction coefficient × fluorescence quantum yield)” value (from here on “Luminance”) is listed as 19800 and the Molar extinction coefficient is 228000 M⁻¹ cm⁻¹. Also, in data set [1] (PBS buffer (pH = 7.4)), the Stokes shift was determined as 22 nm and the Fluorescence quantum yield worked out at 8.7%.

On to `COCCOCCOCCN1/C(=C/C=C2\CCCC(/C=C/C3=[N+](CCOCCOCCOC)c4ccc(S(=O)(=O)O)cc4C3(C)C)=C2Oc2ccc(CCC(=O)N[C@@H](CCCNC(=N)N)C(=O)NCCOCCOCCOCCOCCC(=O)NCCCCC3NC(=O)[C@@H](Cc4ccc(O)cc4)NC(=O)[C@H](CC(=O)O)NC(=O)CNC(=O)[C@H](CCCNC(=N)N)NC3=O)cc2)C(C)(C)c2cc(S(=O)(=O)[O-])ccc21` (stereo partly drawn) [PEG-Cy7-RP-RGD], for which, in data set [2] (24 h after intravenous injection, 2 nmol per mouse), the “TBR (tumor signal-to-noise ratio) relative to the other three probes” value is recorded as “twice or more”. Besides, the “Tissue background (non-specific) signal in normal tissue” value in data set [2] (in vivo imaging) is on record as “ultra-low”. The “Tumor signal-to-noise ratio (TBR), compared with the other probes” value in data set [2] (intravenous, 2 nmol per mouse) is “obviously improved”. Further, in data set [1] (100% Fetal bovine serum), the Absorption peak turned out to be 777 nm, the Emission peak was found to be 795 nm, the “Luminance” value turned out to be 20700 and the Molar extinction coefficient turned out to be 184000 M⁻¹ cm⁻¹. Besides, in data set [1] (100% Fetal bovine serum), the Stokes shift is given as 18 nm and the Fluorescence quantum yield worked out at 11.2%. The “Change of fluorescence property in 100% fetal bovine serum versus PBS” value in data set [1] (100% fetal bovine serum vs PBS) is “did not obviously change”. For the same molecule, in data set [1] (PBS buffer (pH = 7.4)), the Absorption peak is recorded as 776 nm, the Emission peak is given as 794 nm, the “Luminance” value is reported as 19300 and the Molar extinction coefficient turned out to be 174000 M⁻¹ cm⁻¹. For the same molecule, in data set [1] (PBS buffer (pH = 7.4)), the Stokes shift is given as 18 nm and the Fluorescence quantum yield is given as 11.1%. Further, in data set [3], the “Fluorescence signal at tumor site” value was “strong fluorescence signal”. The “Signal-to-noise ratio at tumor site” value in data set [3] (head skin cut) is on record as “up to 6.3”. Besides, in data set [4], the “Fluorescence signal at tumor site” value was “strong fluorescence signal” and the “Signal-to-noise ratio of small lung metastasis lesion” value was “about 4”. In addition, in data set [5], the “Fluorescence signal at tumor site” value was “strong fluorescence signal” and the “Signal-to-noise ratio of small lung metastasis lesion” value is “about 4”. For the same molecule, in data set [6], the “Fluorescence signal at tumor site” value is “strong fluorescence signal” and the “Signal-to-noise ratio at ovarian tumor site” value is “about 4.0”.

On to `COCCOCCOCCN1/C(=C/C=C2\CCCC(/C=C/c3[se]c4cc(S(=O)(=O)O)ccc4[n+]3CCOCCOCCOC)=C2c2ccc(CCC(=O)N[C@@H](CCNC(=N)N)C(=O)NCCOCCOCCOCCOCCC(=O)NCCCCC3NC(=O)[C@@H](Cc4ccc(O)cc4)NC(=O)[C@H](CC(=O)O)NC(=O)CNC(=O)[C@H](CCCNC(=N)N)NC3=O)cc2)[Se]c2cc(S(=O)(=O)O)ccc21` (stereo partly drawn) [example 3], for which the “Fluorescence property compared to example 1” value in data set [1] was “comparable to that in example 1”. Moreover, in data set [7], the “Usability for targeted fluorescence imaging of tumors” value is given as “can be used for targeted fluorescence imaging of tumors”.

In the case of `COCCOCCOCCN1/C(=C/C=C2\CCCC(/C=C/C3=[N+](CCOCCOCCOC)c4ccc(S(=O)(=O)O)cc4C3(C)C)=C2Oc2ccc(CCC(=O)N[C@@H](CCCNC(=N)N)C(=O)NCCOCCOCCOCCOCCC(=O)NCCCC[C@H](NC(=O)NC(CCC(=O)O)C(=O)O)C(=O)O)cc2)C(C)(C)c2cc(S(=O)(=O)[O-])ccc21` (stereo partly drawn) [example 5], in data set [8], the “Binding to PSMA in prostate cancer” value is “can bind to highly expressed PSMA in prostate cancer” and the “Prostate cancer-specific fluorescence imaging” value is reported as “achieving prostate cancer-specific fluorescence imaging”.
